From patent US20250276957A1, “CRYSTALLINE FORMS OF AN IL-17 INHIBITOR” (Novartis AG, priority 2022, published 2025)

What was measured:
Human IL-17A x IL-17RA = biological target: T1, Human IL-17A x IL-17RA (Homo sapiens, UniProt Q16552); settings: biotinylated human IL-17A 5 nM, AF647-labeled human IL-17RA 30 nM; read-out: IL17AA FRET/IL17Rawt IC50; cited from earlier work
T1 sequence (Q16552 24-155): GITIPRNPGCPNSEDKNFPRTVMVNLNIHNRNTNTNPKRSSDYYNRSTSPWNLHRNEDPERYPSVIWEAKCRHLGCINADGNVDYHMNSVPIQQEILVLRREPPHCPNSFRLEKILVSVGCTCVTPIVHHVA

[1] = Dynamic vapor sorption (DVS) and stability at ambient temperature and humidity; assay type: physicochemical; settings: water loss occurs quickly during handling
Description: Due to the unstable nature of hydrate HA at ambient temperature and humidity, water loss occurs quickly during handling of the samples and the high water content observed by DVS analysis was not seen in DSC or TGA analysis. This water loss behavior is considered to explain the different DSC and TGA results for the two hydrate HA samples.

## Cc1cc[n+]([O-])c(C)c1-c1ccc(NC(=O)[C@@H](NC(=O)c2ccnn2C)[C@H]2CCCc3ccccc32)cc1 [2,4-dimethyl-3-(4-((S)-2-(1-methyl-1H-pyrazole-5-carboxamido)-2-((S)-1,2,3,4-tetrahydronaphthalen-1-yl)acetamido)phenyl)pyridine 1-oxide]
Human IL-17A x IL-17RA
  IC50: 8 nM

## Cc1cc[n+]([O-])c(C)c1-c1ccc(NC(=O)[C@@H](NC(=O)c2ccnn2C)[C@H]2CCCc3ccccc32)cc1 [hydrate HA, 2,4-dimethyl-3-(4-((S)-2-(1-methyl-1H-pyrazole-5-carboxamido)-2-((S)-1,2,3,4-tetrahydronaphthalen-1-yl)acetamido)phenyl)pyridine 1-oxide]
[1]
  stability at ambient temperature and humidity: unstable
